How the values were obtained:
[1] = thermal decomposition of the acid; cited from earlier work
[2] = nicotine:tartaric acid 1:2; in PG or VG or any mixture of PG and VG at ambient conditions
From the text: In some embodiments, acids that have poor solubility in the composition constituents are inappropriate for use in certain embodiments of the compositions herein. […] As used herein, weight percentage (w/w) refers to the weight of the individual component over the weight of the total formulation.

**Q.** Which decomposition temperature [1] does the source give for `O=C(O)CC(O)(CC(=O)O)C(=O)O` [citric acid] here?
**A.** 175 °C

**Q.** With `O=C(O)CC(O)C(=O)O` (stereo not drawn) [malic acid] as the compound, how does the decomposition temperature [1] read?
**A.** 150 °C

**Q.** For `CN1CCCC1c1cccnc1.O=C(O)C(O)C(O)C(=O)O` (stereo not drawn) [nicotine bitartrate], which “concentration at which no solution is produced” value [2] is on record?
**A.** < 0.5 % (w/w) nicotine

— patent US12167744B2, “Nicotine liquid formulations for aerosol devices and methods thereof” (JUUL Labs, Inc., priority 2013, dated 2024)
